pIC50: −log10 of the molar value. “Also recorded” adds a separate entry of the source. Where two headings read alike, the source gives them in different places.
Assays:
PDGF β-receptor = biological target: T1, PDGF β-receptor (Sus scrofa, UniProt F1RL75); test: PDGF induced PDGFR autophosphorylation in intact SMC cells; assay type: cell-based; settings: porcine arterial SMC; for inhibition of PDGF-BB induced PDGF β-receptor tyrosine-phosphorylation: tyrphostin 10 μM, 60 min preincubation, PDGF-BB 100 ng/ml
T1 construct: PDGF-BB stimulated; immunoprecipitated with PDGF beta-receptor specific antiserum R3
T1 sequence (F1RL75 109-1181): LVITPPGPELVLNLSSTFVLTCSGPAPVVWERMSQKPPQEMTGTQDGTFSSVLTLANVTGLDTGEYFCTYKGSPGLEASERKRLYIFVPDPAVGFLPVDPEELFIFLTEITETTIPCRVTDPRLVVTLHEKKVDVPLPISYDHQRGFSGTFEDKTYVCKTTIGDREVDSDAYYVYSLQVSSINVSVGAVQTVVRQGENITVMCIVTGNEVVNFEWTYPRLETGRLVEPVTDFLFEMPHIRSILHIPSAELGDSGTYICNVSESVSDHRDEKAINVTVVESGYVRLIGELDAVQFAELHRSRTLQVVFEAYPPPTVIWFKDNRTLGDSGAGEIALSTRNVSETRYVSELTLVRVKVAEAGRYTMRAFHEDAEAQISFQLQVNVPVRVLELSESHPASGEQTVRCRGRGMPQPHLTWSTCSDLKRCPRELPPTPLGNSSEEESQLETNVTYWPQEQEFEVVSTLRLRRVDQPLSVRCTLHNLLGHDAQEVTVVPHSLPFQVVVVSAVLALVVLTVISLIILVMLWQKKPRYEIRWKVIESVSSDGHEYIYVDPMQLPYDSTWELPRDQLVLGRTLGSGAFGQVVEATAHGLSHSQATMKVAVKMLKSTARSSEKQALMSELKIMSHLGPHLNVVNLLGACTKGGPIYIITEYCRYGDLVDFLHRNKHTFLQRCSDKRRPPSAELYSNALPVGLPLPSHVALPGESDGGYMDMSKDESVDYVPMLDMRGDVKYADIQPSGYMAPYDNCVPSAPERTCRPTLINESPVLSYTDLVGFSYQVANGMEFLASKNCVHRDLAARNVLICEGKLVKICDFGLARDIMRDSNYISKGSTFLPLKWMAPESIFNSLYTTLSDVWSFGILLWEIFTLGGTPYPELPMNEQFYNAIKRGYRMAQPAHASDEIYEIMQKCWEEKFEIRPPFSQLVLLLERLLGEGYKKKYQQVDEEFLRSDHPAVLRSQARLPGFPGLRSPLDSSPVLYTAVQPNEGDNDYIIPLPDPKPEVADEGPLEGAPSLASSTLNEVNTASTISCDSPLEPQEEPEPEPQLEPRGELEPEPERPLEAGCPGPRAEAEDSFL
Protocol: Effect of tyrphostins on PDGF induced PDGFR autophosphorylation in intact SMC cells: Subconfluent porcine arterial smooth muscle cells, cultivated in Dulbecco's modified Eagle's medium (DMEM) supplemented with 15% fetal calf serum (FCS), were synchronized for 20 hours in a medium containing 2% FCS. […] After stimulation, the cells were solubilized in Nonidet P-40 (1%) containing lysis buffer.
The analysis of PDGF p-receptor phosphorylation was performed as follows. Cell lysates were subjected to immunoprecipitation using the PDGF β-receptor specific antiserum R3 [5]. The percipitates were subjected to polyacrylamide (7.5%) gel electrophoresis in presence of sodium deducyl sulfate (SDS-PAGE) and were thereafter blotted onto a nitrocellulose membrane (Hybond C-EXTRA, Amersham). Phosphorylated proteins were detected by immunoblotting using the horseradish-peroxidase conjugated phosphotyrosine antibody RC20H (Transduction Laboratories), followed by chemoluminescence-based detection (ECL, Amersham) and autoradiography.
Detection of receptor proteins was performed as follows. Cell lysates were subjected to immunoprecipitation using the PDGF β-receptor specific antiserum R3 [5], as described above, and the percipitates washed three times and thereafter subjected to SDS-PAGE (7.5%) and blotting onto a nitrocellulose membrane (Hybond C-EXTRA, Amersham). Receptor proteins were detected by immunoblotting using the horseradish-peroxidase conjugated donkey anti-rabbit antibody (Amersham), followed by chemoluminescence-based detection (ECL, Amersham) and autoradiography.

SRC kinase = biological target: T2, SRC kinase (Gallus gallus, UniProt P00523, Y527F); test: Src kinase activity assay (immunoprecipitate from src-transformed NIH 3T3 cells); assay type: biochemical, chicken; settings: read-out: IC50 (50% inhibition of phosphorylation) SRC kinase
T2 construct: expressed in transfected cells; host or cells: NIH 3T3, stably transfected (gift of S. Courtneidge, Heidelberg)
Protocol: Src kinase activity assay: src-transformed NIH 3T3 cells were grown in 24-well plates to confluency; rinsed twice with a solution containing 20 mM Tris, 0.1 mM sodium-o-vanadate, and 150 mM NaCl (pH 7.5); and lysed in 100 μl/well of lysis buffer containing 20 mM Tris (pH 8.0), 150 mM NaCl, 1% Nonidet P-40, 2.5 mM EDTA, 10 mM NaF, 1% trasylol, and 20 μm leupeptin. The lysate was clarified by centrifugation and subjected to immunoprecipitation with the anti-Src monoclonal antibody MAb 327 (Oncogene Science; 0.5 μg antibody/80 μg protein) for 1 hour at 4° C. Then, goat anti-mouse IgG (Sigma; 0.2 μg per 0.5 μg monoclonal antibody 327) was added and incubation was continued for 30 mi followed by another 40 min of incubation with 10 μl of protein A-Sepharose Cl-4B (Pharmacia). The immunoprecipitates were washed five times with the lysis buffer and twice with kinase buffer containing 40 mM Hepes (pH 7.4), 0.5 mM dithiothreitol, 5 mM MnCl2, and 0.1 mM sodium-o-vanadate. The immunoprecipitates were suspended in kinase buffer and aliquots corresponding to 40 μg of cell lysate protein were preincubated with or without tyrphostin for 15 min at 30° C. Then, the kinase reaction was performed in the presence of 2 μg of acid-treated enolase and 10 μCi of [γ-^32 P]ATP (2 μM) in a final volume of 30 μl. The reaction was terminated by addition of SDS-PAGE sample buffer (6% SDS, 30% β-mercaptoetlhanol, 40% glycerol, and 0.5 mg/ml bromophenol blue) and the incorporation of radioactivity in the enolase was analyzed by SDS-PAGE and autoradiography as well as Phosphor-Imager quantification.

EGFR = biological target: T3, EGFR (Mus musculus, UniProt Q01279); test: EGFR autophosphorylation, isolated membranes or intact Swiss 3T3 cells; assay type: biochemical; settings: read-out: IC50 (50% inhibition of phosphorylation) EGFR
T3 construct: Membranes were prepared from confluent cultures of Swiss 3T3 cells; endogenous in cells; host or cells: Swiss 3T3 (obtained from E. Rozengurt, London)
T3 sequence (Q01279 25-1210): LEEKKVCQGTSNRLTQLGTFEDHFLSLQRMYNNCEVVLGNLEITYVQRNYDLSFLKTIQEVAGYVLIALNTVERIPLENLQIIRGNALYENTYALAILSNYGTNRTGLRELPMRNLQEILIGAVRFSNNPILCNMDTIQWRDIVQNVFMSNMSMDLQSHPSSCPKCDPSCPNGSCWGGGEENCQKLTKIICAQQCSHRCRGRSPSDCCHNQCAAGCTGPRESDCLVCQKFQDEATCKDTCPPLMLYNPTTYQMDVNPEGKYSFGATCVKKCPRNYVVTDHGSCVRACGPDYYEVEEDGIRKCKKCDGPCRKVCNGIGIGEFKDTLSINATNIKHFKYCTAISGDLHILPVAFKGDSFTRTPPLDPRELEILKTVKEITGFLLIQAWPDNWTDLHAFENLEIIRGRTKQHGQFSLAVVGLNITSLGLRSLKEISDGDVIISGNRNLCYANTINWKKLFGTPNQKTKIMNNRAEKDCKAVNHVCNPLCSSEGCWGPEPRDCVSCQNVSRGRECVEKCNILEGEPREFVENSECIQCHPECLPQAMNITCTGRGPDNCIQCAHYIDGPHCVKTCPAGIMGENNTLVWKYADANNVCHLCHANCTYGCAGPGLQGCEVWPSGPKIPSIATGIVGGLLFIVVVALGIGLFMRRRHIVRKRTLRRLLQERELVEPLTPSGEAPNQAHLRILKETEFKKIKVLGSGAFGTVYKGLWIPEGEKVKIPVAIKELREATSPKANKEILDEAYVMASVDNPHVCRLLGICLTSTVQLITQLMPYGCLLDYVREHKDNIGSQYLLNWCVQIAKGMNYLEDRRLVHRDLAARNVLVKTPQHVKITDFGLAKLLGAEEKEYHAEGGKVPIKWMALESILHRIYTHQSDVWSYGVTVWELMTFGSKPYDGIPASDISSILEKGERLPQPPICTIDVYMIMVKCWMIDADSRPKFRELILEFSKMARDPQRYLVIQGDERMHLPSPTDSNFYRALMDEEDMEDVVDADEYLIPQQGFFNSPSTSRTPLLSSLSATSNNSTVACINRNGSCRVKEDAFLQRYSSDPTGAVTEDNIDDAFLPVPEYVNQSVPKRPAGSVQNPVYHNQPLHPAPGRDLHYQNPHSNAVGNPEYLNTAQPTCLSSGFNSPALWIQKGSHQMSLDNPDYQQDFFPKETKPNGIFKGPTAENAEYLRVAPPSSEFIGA
Protocol: Assay of receptor autophosphorylation in intact 3T3 cells: Confluent Swiss 3T3 cells in 24-well plates (Nunc) were incubated for 20-24 hours in serum-free DMEM. Subsequently, tyrphostins were added at concentrations ranging from 0 to 100 μM (final DMSO concentration, 0.5%) and the incubation was continued for 6-8 hours. The cells were then stimulated with 100 ng/ml PDGF-BB for 5 min at room temperature or 600 ng/ml EGF for 2.5 min on ice. The growth factor treatment was terminated by washing twice with ice-cold PBS and the cells were scraped off the wells in 60 μl lysis buffer containing 20 mM Hepes (pH 7.4), 150 mM NaCl, 1% Triton X-100, 10 mM sodium pyrophosphate, 50 mM NaF, 2 mM sodium-o-vanadate, 20 μm zinc acetate, 10 nM EDTA, 2 mM [ethylenebis(oxyethilenenitrilo)] tetraacetic acid, 1 mM phenylmethylsulfonyl fluoride, and 5 μg/ml leupeptin.
The cell lysates were clarified by centrifugation (cooled microfuge, 17,000 rpm, 15 min) and analyzed by SDS-PAGE (6.5% gels) and immunoblotting with anti-phosphotyrosine antibodies (either PY 20, ICN, and subsequently a peroxidase-coupled secondary antibody, or RC20-peroxidase conjugate, Affinity, Nottingham, United Kingdom). The blots were developed with a chemiluminescence detection system (Western Light, Tropix, or ECL, Amersham).
Membrane autophosphorylation assays: Membranes were prepared from confluent cultures of Swiss 3T3 cells as described [22]. For measuring receptor autophosphorylation, 10 μg membrane protein per assay were incubated for 20 min on ice in the presence of 1.2 μg/ml EGF or 2 μg/ml PDGF, or both; 50 mM Hepes (pH 7.5); and 3 mm MnCl2 (final concentrations) in a volume of 45 μl. In order to test the effects and determine the IC50 value of various tyrphostins, these were added in a volume of 0.5 μl (in DMSO; final concentration, 0.5%) 15 min before addition of the growth factors, in a range of concentrations. […] For quantification of radioactivity in electrophoresis gels, a Phospho-Imager (Molecular Dynamics, Fuji, or Bio-Rad) was used according to the instructions of the manufacturers. […]

[1] = test system: porcine aortic smooth muscle cells (SMC); test: Inhibition of cell proliferation and recovery, porcine SMC; assay type: cell-based; settings: for inhibitory effect on porcine SMC growth (in words) / toxicity on SMC / inhibition at 10 µM: 10 μM; for inhibitory effect on porcine SMC growth (in words): FIGS. 3-7; for toxicity on SMC / reversibility of the inhibitory effect / recovery of SMC growth after washout: porcine SMC; for inhibition at 10 µM: Sus scrofa; for reversibility of the inhibitory effect / recovery of SMC growth after washout: cultures washed, cells allowed to recover
Protocol: Smooth muscle cells (SMC) were obtained under aseptic conditions from porcine abdominal aortas, and human internal mammary arteries (IMA). Specimens from the operating room were transferred on ice to the tissue culture room. Each artery was cut open and the endothelial surface mechanically scraped. […] The tissue fragments were then placed in an incubator at 37° C. under 9% CO2 atmosphere until SMC outgrowth was detected (typically within 3-7 days). […] For experiments testing the effect of tyrphostins on growth inhibition and recovery (see below), SMC from passages 1-3 were replated in 15 mm wells pretreated with 3 μg/cm^2 fibronectin (Biological Industries, Kibbutz Beit Haemek, Israel) at 15,000 cells/well.
Inhibition of cell proliferation and recovery: Monolayer cell growth inhibition and recovery experiments were repeated 3 or 4 times. Each experiment was performed in triplicate. […] Cultures were treated with a tyrphostin (10 μM) dissolved in 0.1% DMSO on days 1 and 3. On day 6, cultures were washed and the cells allowed to recover. Typically cells were counted on days 3 and 5 for inhibition, and on days 7, 10 and 15 for recovery, other schedules were also employed as reported below.

[2] = 120 h, by day 5 (day given for AG1295 and AG1992), read-out: reduction in SMC count / inhibition of SMC growth over control
[3] = Table 2, read-out: mean reduction in SMC count compared to control cells (maximal inhibition in SMC growth)

SMILES | level of PDGF β-receptor protein present in the cells (PDGF β-receptor) | inhibition of PDGF-BB induced PDGF β-receptor tyrosine-phosphorylation (PDGF β-receptor) | pIC50 (SRC kinase) | pIC50 (EGFR) | inhibitory effect on porcine SMC growth (in words) [1] | toxicity on SMC [1] | inhibition at 10 µM [1, 2] [%] | inhibition at 10 µM ([1]; FIG. 6 experiment, read-out: maximal inhibitory effect on porcine SMC proliferation) [%] | inhibition at 10 µM [1, 3] [%] | reversibility of the inhibitory effect / recovery of SMC growth after washout [1] | inhibition at 10 µM ([1]; FIG. 7 experiment, read-out: maximal inhibitory effect on porcine SMC proliferation) [%]
Cc1nc2cc3nc(-c4ccccc4)cnc3cc2n1C [AG1851] | without affecting the level | completely inhibited | < 4.52 | < 4.52 | very potent growth inhibition effect; also recorded: most effective inhibitory response; also recorded: highly effective in blocking proliferation | without having a substantial toxic effect; also recorded: low lasting toxicity | 79 | 78 | 79 | completely reversible; also recorded: normal cell growth appeared immediately after treatment with AG1851 was discontinued | –
Cc1nc2cc3nc(-c4cccs4)cnc3cc2n1C [AG1992] | without affecting the level | completely inhibited | < 4.52 | < 4.52 | very potent growth inhibition effect; also recorded: very effective proliferation inhibitors | low lasting toxicity | 87 | – | 87 | completely reversible | 89

Source: patent publication US5932580A, “PDGF receptor kinase inhibitory compounds their preparation and compositions” (priority 1997, dated 1999)
